Values quoted from earlier work, collected in patent US10138251B2, “Spiro[3H-indole-3,2′-pyrrolidin]-2(1H)-one compounds and derivatives as MDM2-P53 inhibitors” (Boehringer Ingelheim International GmbH, priority 2014, dated 2018).

Experiments:
[1] = test system: acute lymphoblastic leukemia (ALL) xenograft models with mixed-lineage leukemia (MLL) rearrangement; details: Carol et al. 2013; cited from earlier work
[2] = test system: human acute myeloid leukemia (AML) xenograft models harboring p53 wild-type; details: Tovar et al. 2013; cited from earlier work
[3] = test system: solid tumor xenograft models; details: Carol et al. 2013; cited from earlier work
[4] = test system: human prostate tumor xenograft models harboring p53 wild-type; details: Tovar et al. 2013; cited from earlier work

## CCOc1cc(C(C)(C)C)ccc1C1=N[C@@](C)(c2ccc(Cl)cc2)[C@@](C)(c2ccc(Cl)cc2)N1C(=O)N1CCN(CCCS(C)(=O)=O)CC1 [RG7112]
[1]
  efficacy: particularly efficacious
[2]
  antiproliferative and proapoptotic activity: antiproliferative and proapoptotic activity
[3]
  tumor growth inhibition: induced tumor growth inhibition
[4]
  antiproliferative and proapoptotic activity: antiproliferative and proapoptotic activity
